Measurements as given in ChEMBL document CHEMBL1201862, “PubChem BioAssay data set” (2004).
Active and inactive are the calls of the source.

Assays:
Cytochrome P450 2C19 = Cytochrome P450 2C19 (Homo sapiens, UniProt P33261); experiment: Cytochrome panel assay with activity outcomes. Panel member name: p450-cyp2c19 Compounds with AC50 equal or less than 10 uM are considered active; type: functional
[1] = inhibitors of intracellular T. cruzi replication, confirmation, NIH3T3 host cells, beta-gal luminescence (AID 2044); type: functional, cell-based;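 also: intracellular parasites grown in NIH/3T3 mouse fibroblasts as host cells; luminescent beta-galactosidase reporter signal from transgenic T. cruzi replicating inside host cells; inhibitors lower the luminescence signal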
[2] = cytotoxicity toward NIH3T3 fibroblasts, dose response, counter-screen, cell-based, ATP luminescence, mouse fibroblasts (AID 2010); type: functional;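 also: cells exposed to compound for about 90 hours before reading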
[3] = tested on: Streptococcus sp. 'group A'; experiment: growth inhibition of control SK(-) GAS strain, dose response, counter-screen for streptokinase expression inhibitor project, luminescence, kanamycin, BacTiterGlo, confirmation (AID 1900); type: functional, organism-based
Streptokinase A = biological target: T1, Streptokinase A (Streptococcus pyogenes serotype M1, UniProt P10520); experiment: S. pyogenes streptokinase expression inhibitors, potency, dose response, plasminogen activation absorbance, OD405 (AID 1914); type: functional, Streptococcus pyogenes M1 GAS;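 also: secreted streptokinase activity via plasminogen activation per viability signal from cell pellet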
T1 sequence (P10520 whole entry): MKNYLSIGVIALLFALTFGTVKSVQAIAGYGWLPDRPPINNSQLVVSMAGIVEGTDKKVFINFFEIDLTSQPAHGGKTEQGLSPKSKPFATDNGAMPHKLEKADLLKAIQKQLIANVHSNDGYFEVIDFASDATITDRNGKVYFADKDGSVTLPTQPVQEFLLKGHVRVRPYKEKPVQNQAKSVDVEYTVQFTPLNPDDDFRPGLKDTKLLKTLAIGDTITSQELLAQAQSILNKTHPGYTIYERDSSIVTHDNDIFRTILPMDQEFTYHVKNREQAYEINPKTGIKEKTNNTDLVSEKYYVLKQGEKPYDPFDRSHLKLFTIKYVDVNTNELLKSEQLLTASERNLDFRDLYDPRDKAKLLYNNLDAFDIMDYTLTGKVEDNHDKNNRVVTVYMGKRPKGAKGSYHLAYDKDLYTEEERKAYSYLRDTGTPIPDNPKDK

Streptococcus = experiment: Group A Streptococcus viability loss, dose response, counter-screen for streptokinase expression inhibitor project, luminescence, BacTiterGlo (AID 1915); type: functional, organism-based;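 also: potency for reduction of bacterial viability or growth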
[4] = Luminescence Cell-Based Dose Response HTS to Identify Inhibitors of 5'UTR Stem-Loop Driven Prion Protein mRNA Translation in H4 Neuroglioblastoma Cells. [Related pubchem assays: 1827 (Project Summary), 1813 (Primary HTS)]; type: functional
[5] = inhibitors of SNCA 5'UTR-driven reporter translation, confirmation, H4 neuroglioma cells, luminescence (AID 1988); type: functional, cell-based
[6] = inhibitors of firefly luciferase expression or activity, dose response, H4 neuroglioma cells, luminescence (AID 1990); type: functional, cell-based
[7] = biological target: T2, Corticotropin-releasing factor receptor 2/Corticotropin-releasing factor-binding protein (Homo sapiens, UniProt P24387+Q13324); experiment: activators of CRF receptor 2 with binding protein – uHTS hits, confirmation (AID 602473); type: functional; details: read-out: EC50_Mean
T2 sequence (Q13324 whole entry): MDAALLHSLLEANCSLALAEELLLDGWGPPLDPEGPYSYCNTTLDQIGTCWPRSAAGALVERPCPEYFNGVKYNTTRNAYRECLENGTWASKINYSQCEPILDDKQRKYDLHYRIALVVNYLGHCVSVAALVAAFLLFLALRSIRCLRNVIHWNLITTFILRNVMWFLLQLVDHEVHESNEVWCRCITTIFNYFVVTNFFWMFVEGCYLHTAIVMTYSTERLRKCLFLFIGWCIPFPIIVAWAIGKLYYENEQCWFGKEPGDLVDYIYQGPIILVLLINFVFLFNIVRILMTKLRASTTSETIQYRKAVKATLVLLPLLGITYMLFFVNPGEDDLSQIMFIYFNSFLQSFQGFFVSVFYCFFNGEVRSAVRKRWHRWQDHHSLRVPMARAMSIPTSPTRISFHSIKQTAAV
T2 sequence (P24387 whole entry): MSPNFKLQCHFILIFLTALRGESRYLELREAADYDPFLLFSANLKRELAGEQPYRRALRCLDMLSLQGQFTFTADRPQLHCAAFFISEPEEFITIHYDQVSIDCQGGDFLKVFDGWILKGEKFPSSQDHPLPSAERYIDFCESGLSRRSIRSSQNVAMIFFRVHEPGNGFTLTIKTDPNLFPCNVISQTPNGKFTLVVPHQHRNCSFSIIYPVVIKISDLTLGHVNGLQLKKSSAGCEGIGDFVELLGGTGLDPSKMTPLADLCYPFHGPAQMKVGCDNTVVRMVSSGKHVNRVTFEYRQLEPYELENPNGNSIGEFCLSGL

Sequence of Cytochrome P450 2C19 (P33261 whole entry): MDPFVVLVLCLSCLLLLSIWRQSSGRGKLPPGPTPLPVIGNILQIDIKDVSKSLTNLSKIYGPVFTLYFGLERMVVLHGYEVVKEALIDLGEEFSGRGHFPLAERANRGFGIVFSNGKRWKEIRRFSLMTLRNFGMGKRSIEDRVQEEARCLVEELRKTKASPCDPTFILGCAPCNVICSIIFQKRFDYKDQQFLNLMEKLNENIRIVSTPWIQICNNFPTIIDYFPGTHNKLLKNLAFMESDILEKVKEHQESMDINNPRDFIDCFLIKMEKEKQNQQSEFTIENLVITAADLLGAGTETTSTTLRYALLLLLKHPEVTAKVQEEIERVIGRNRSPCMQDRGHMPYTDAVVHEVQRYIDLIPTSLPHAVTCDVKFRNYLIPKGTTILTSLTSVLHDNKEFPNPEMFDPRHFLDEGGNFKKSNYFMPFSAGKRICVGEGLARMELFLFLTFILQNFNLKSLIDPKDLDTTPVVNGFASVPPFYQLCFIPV

Row | SMILES | EC50 [1] | EC50 [2] | EC50 [3] | EC50 (Streptokinase A) | EC50 (Streptococcus) | also measured
1 | CN(C)c1ncc2nc(-c3ccccc3)c(=O)n(CCC#N)c2n1 | – | – | – | – | – | AC50 (Cytochrome P450 2C19; read-out: AC50): 39.8 µM (inconclusive)
2 | O=C1S/C(=C\c2ccccc2)C(=O)N1CC(O)Cn1c2ccccc2c2ccccc21 (configuration not stated) | 2.64 µM (active) | 11.5 µM (active) | – | – | – | –
3 | Cc1cc(OCCOCCN2CCCC2)ccc1C(C)C | 0.816 µM (active) | 4.6 µM (active) | – | – | – | –
4 | COC(=O)c1ccc(OC)c(CN2CCCN(Cc3ccc(F)cc3)S2(=O)=O)c1 | 1.75 µM (active) | > 30 µM (not active) | – | – | – | –
5 | NNC(=O)CSc1nc(-c2ccccc2)nc2c1CCCC2 | – | – | > 150 µM (not active) | > 150 µM (not active) | > 150 µM (not active) | –
6 | Cc1cccc(N=Nc2c(C)nn(-c3ccccc3)c2N)c1C | – | – | 11.7 µM (active) | 22 µM (active) | 15.8 µM (active) | –
7 | O=C(Nc1nnc(SCc2ccc(F)cc2)s1)c1ccc2c(c1)C(=O)N(c1ccccc1Cl)C2=O | – | – | 24.3 µM (active) | > 150 µM (not active) | 101 µM (active) | –
8 | COc1cccc(N(C(=O)Cn2nnc(-c3cccs3)n2)C(C(=O)NC(C)C)c2ccc(C)o2)c1 (configuration not stated) | – | – | – | – | – | EC50 [4]: > 120 µM (not active); EC50 [5]: 18.8 µM (active); EC50 [6]: 16.4 µM (active)
9 | CN1CCN(C(=O)C(=O)c2cn(CC(=O)N3CCCC3)c3ccccc23)CC1 | – | – | > 150 µM (not active) | > 150 µM (not active) | > 150 µM (not active) | –
10 | COc1ccc(NC(=O)c2ccc([N+](=O)[O-])s2)c([N+](=O)[O-])c1 | 1.86 µM (active) | > 30 µM (not active) | – | – | – | –
11 | Cn1nc([N+](=O)[O-])nc1Oc1ccccc1F | 0.551 µM (active) | > 60 µM (not active) | – | – | – | –
12 | Cc1ccc(S(=O)(=O)N2CCCCC2)cc1NC(=O)Nc1ccc(Cl)cc1Cl | 1.06 µM (active) | > 60 µM (not active) | – | – | – | –
13 | Cc1cc(C(=O)NCC23CC4CC(CC(C4)C2)C3)c(C)o1 | 2.84 µM (active) | > 60 µM (not active) | – | – | – | –
14 | Cc1ccc(Nc2nc3nonc3[nH]c2=O)cc1Cl | – | – | – | 31.1 µM (active) | – | –
15 | Cc1ccc(Nc2nc3nonc3nc2O)cc1Cl | – | – | 3.04 µM (active) | – | 20.6 µM (active) | –
16 | Cc1c(C(=O)N2CCOCC2)c(S(=O)(=O)Nc2cccc(Br)c2)c(C)n1C | – | – | – | – | – | EC50 [4]: 32.2 µM (active); EC50 [5]: 15 µM (active); EC50 [6]: > 120 µM (not active)
17 | Cc1ccc(NC(=O)CN(C)Cc2nc(O)c3cc(Br)cc(Br)c3n2)cc1 | – | – | 5.34 µM (active) | > 150 µM (not active) | 12.2 µM (active) | –
18 | Cn1c(N)c(C(=O)COC(=O)CCc2c[nH]c3ccccc23)c(=O)n(C)c1=O | – | – | 24.6 µM (active) | > 150 µM (not active) | 79.6 µM (active) | –
19 | CCc1nnc(NC(=O)c2sc3nc4cc(C)ccc4cc3c2N)s1 | – | – | 6.73 µM (active) | – | 3.95 µM (active) | –
20 | CCOC(=O)C1CCCN(Cc2ccc(OCc3ccccc3)cc2)C1 (configuration not stated) | 0.108 µM (active) | > 60 µM (not active) | – | – | – | –
21 | COc1ccc(-n2ncc3c2CC(C)(C)CC3NC(=O)c2ocnc2C)cc1 (configuration not stated) | – | – | – | – | – | EC50 [5]: > 120 µM (not active); EC50 [6]: > 120 µM (not active)
22 | COc1cc2ccccc2cc1C(=O)Nc1ccc(NC(=O)c2cccs2)cc1 | – | – | 11.5 µM (active) | > 150 µM (not active) | 29.2 µM (active) | –
23 | CNc1nc2nc(O)c3c(c2s1)OC(N)=C(C#N)C3c1cccc(F)c1 (configuration not stated) | – | – | – | – | – | EC50 [7]: > 53 µM (inactive)

Row | SMILES | EC50 [1] | EC50 [2] | EC50 [3] | EC50 (Streptokinase A) | EC50 (Streptococcus) | also measured
24 | CN1CCN(C(CNC(=O)c2ccc(Br)o2)c2ccc(F)cc2)CC1 (configuration not stated) | 0.865 µM (active) | > 60 µM (not active) | – | – | – | –
25 | Cc1ccccc1OCCCc1c(C)n[nH]c1C | – | – | 19.9 µM (active) | > 150 µM (not active) | > 150 µM (not active) | –
26 | Cn1c(=O)n(C)c2cc(NS(=O)(=O)c3ccccc3[N+](=O)[O-])ccc21 | – | – | > 150 µM (not active) | > 150 µM (not active) | > 150 µM (not active) | –
27 | O=C(CSc1nnc(-c2c[nH]c3ccccc23)o1)N(Cc1ccccc1)c1ccc(F)cc1 | 1.58 µM (active) | > 60 µM (not active) | – | – | – | –
28 | N#C/C(=C/c1ccc(N2CCCCCC2)o1)c1cccc(F)c1 | 2.78 µM (active) | > 60 µM (not active) | – | – | – | –
29 | CCOC(=O)C1=NN(C(=O)c2ccc(OC)cc2)C(O)(c2ccc(Cl)cc2)C1 (configuration not stated) | – | – | 7.85 µM (active) | > 150 µM (not active) | 15.7 µM (active) | –
30 | O=C(Nc1ccncc1)c1cccc(S(=O)(=O)N2CCN(c3ccc(F)cc3)CC2)c1 | 1.14 µM (active) | > 30 µM (not active) | – | – | – | –
31 | CCOC(=O)C1CCCN(Cc2ccc(O)c(OC)c2)C1 (configuration not stated) | 0.183 µM (active) | > 60 µM (not active) | – | – | – | –
32 | O=C(COC(=O)CSc1cc(Cl)ccc1Cl)NCc1ccc2c(c1)OCO2 | – | – | – | – | – | EC50 [7]: > 53 µM (inactive)
33 | CSc1nnnc2ccccc12 | – | – | – | – | – | AC50 (Cytochrome P450 2C19): inconclusive
34 | Cc1ccc(C)c(NC(=O)c2cccc(Oc3ccc([N+](=O)[O-])cc3Cl)c2)c1 | 1.45 µM (active) | > 30 µM (not active) | – | – | – | –
35 | CCN(CC)C(=O)Cn1c(=O)c2ccccc2n2c(=S)sc(-c3cccc(C)c3)c12 | – | – | – | – | – | EC50 [7]: > 53 µM (inactive)
36 | COc1ccc(Cc2noc(CN3CCN(C4CCc5ccccc5C4)CC3)n2)cc1OC (configuration not stated) | 1.23 µM (active) | > 60 µM (not active) | – | – | – | –
37 | CCN(CC(=O)Nc1sc2c(c1C#N)CCCC2)Cc1nc(O)c2ccccc2n1 | – | – | – | – | – | EC50 [4]: > 120 µM (not active); EC50 [5]: > 120 µM (not active); EC50 [6]: 22.4 µM (active)
38 | CC(C)=CCC12Oc3cc(O)ccc3C1(O)Oc1cc(O)c([C@H]3C=C(C)CC(c4ccc(O)cc4O)[C@H]3C(=O)c3ccc(O)cc3O)c(O)c1C2=O (some centres not stated) | – | – | 1.15 µM (active) | – | 1.64 µM (active) | –
39 | NS(=O)(=O)c1ccc(NC(S)=Nc2ccn(Cc3cccc4ccccc34)n2)cc1 | – | – | – | – | – | EC50 [4]: > 120 µM (not active); EC50 [5]: > 120 µM (not active); EC50 [6]: 15.6 µM (active)
40 | O=C(Cc1coc2cc3c(cc12)CCC3)OCC(=O)N1CCCC1=O | – | – | – | – | – | EC50 [4]: > 60 µM (not active); EC50 [5]: 30.1 µM (active); EC50 [6]: > 60 µM (not active)
41 | O=C(C[C@H]1C[C@H](C(=O)N2CCCCC2)[C@@]2(CCc3ccccc3)c3[nH]c4ccc(Cl)cc4c3CCN2C1=O)NCCN1CCOCC1 | – | – | – | – | – | EC50 [7]: > 53 µM (inactive)
42 | O=C(Cn1nnc(-c2ccccc2)n1)N/N=C/c1cc([N+](=O)[O-])ccc1O | – | – | 0.421 µM (active) | – | 0.55 µM (active) | –
43 | CCCN(Cc1ccco1)S(=O)(=O)c1ccc(OC)c(OC)c1 | – | – | > 150 µM (not active) | > 150 µM (not active) | > 150 µM (not active) | –
44 | CC(/C=C/C=C/c1ccccc1)=N/NC(=O)c1ccc2c(c1)OCCO2 | – | – | > 150 µM (not active) | > 150 µM (not active) | > 150 µM (not active) | –
45 | O=[N+]([O-])c1cccc(-c2ccc(/C=N/NC(=S)Nc3ccccc3)o2)c1 | 1.99 µM (active) | – | – | – | – | –
46 | Oc1ccc(/C=N/Nc2ccc3ccccc3c2)c(O)c1 | – | – | 6.27 µM (active) | > 150 µM (not active) | 31.9 µM (active) | –
